Results on 14 compounds are retold here after PubChem BioAssay (NCI).

Holding throughout (experiment): NCI-60 cell line screen, 48 h
In assay [1] the test system is U251 CNS.
In assay [2] the test system is UO-31 renal.
The subject of assay [3] is RPMI-8226 leukemia.
Assay [4] relates to ACHN renal.
For assay [5], the system named is HOP-62 NSCLC.
Assay [6] concerns NCI-H23 lung.
The subject of assay [7] is OVCAR-8 ovarian.
In assay [8] the test system is K-562 leukemia.
Assay [9] deals with TK-10 renal.
Assay [10] relates to MDA-MB-435.

“And” between values parts separate entries of the source, which are not always exact repeats. Equal values may be shown once.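 Exposure lasted 48 hours, with cells grown in 96-well plates and compounds tested at five concentrations. Here, GI50 denotes the concentration required for 50% inhibition of growth. TGI: concentration producing complete growth inhibition.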

Take `NC(=O)C#CC(N)=O`: the GI50 is 43 µM and 39.1 µM and > 100 µM in [1]; 57.4 µM in assay [5]; 46.4 µM in assay [6]; 8.34 µM and 19.2 µM in [7]. The TGI was 152 µM and 132 µM and > 100 µM in [1]; 63.4 µM and > 81.1 µM in [2]; 62.1 µM in assay [3]; above 100 µM in [4]; 211 µM and 170 µM and > 100 µM in [5]; 238 µM and 207 µM and > 100 µM in assay [6]. The TGI in [7] is 23.4 µM and 47.5 µM; in [8] it was 15.1 µM and 96.6 µM and 24.3 µM; in [9] it was 36.2 µM.

Turning to `Cc1cccc(C2=NC(C)(C)C(C)(C)N=C2c2cccc(C)n2)n1`, the TGI in assay [1], in [2], in [3], in assay [4], in assay [5] and in [6] was above 100 µM each time. The TGI in assay [7], in assay [8] and in assay [9] was above 100 µM in each case.

Regarding `Cc1ccc(N2CCc3c(C)c(C#N)c4nc5ccccc5n4c32)cc1`, the TGI in assay [1], in assay [2], in assay [10], in assay [4], in assay [5] and in assay [6] was above 100 µM throughout. For the same compound, the TGI in assay [7] and in assay [9] was above 100 µM each time.

Consider `Cc1cc(-c2nc3ccccc3s2)ccc1NC(=O)[C@H](C)N`, for which the TGI turned out to be 33.9 µM in [1]; 19.1 µM in assay [2]; 19.9 µM in [10]; 27.5 µM in assay [4]; 28.3 µM in assay [5]; 33.9 µM in [6]. For the same compound, the figures for the TGI in assay [7] and in assay [8] were 37.4 µM and 23.2 µM, respectively.

Turning to `C=C1C(=O)OCC2C(C(=O)O)=CC3C(C)C(C)=CC123` (stereo unspecified), the TGI in assay [1] is 38.6 µM; in assay [2], 39.5 µM; in [3] it was 26.8 µM; in assay [5], 31.4 µM; in assay [6], 25.7 µM; in assay [7] it was 73.5 µM. Besides, the TGI in [8] stood at 72.4 µM.

Regarding `O=C(NC1CCN(Cc2ccccc2)CC1)c1cc2nc(-c3ccc(Cl)s3)cc(C(F)(F)F)n2n1`, the GI50 is 5.98 µM in assay [1]; above 100 µM in assay [2]; above 100 µM in assay [10]; 27 µM in [5]; above 100 µM in assay [6]; 3.29 µM in [8]. Further, in assay [9], the GI50 was 12.5 µM. In addition, the TGI in assay [1], in assay [2], in assay [10], in [5], in assay [6] and in assay [8] was above 100 µM each time. Besides, in assay [9], the TGI was above 100 µM.

Turning to `C1CCC(OC2CSC2)OC1` (stereo unspecified), the TGI in [1], in assay [2], in [10], in [4], in [6] and in assay [7] was above 100 µM each time. For the same compound, the TGI in assay [8] and in [9] was above 100 µM throughout.

In the case of `Cc1cccc(NC(=O)C(=O)C(C(=O)c2ccccc2F)C2OC(=O)c3ccccc32)c1Cl` (stereo unspecified), the TGI in assay [1] is 36 µM; in assay [2], above 100 µM; in assay [3] it was above 100 µM; in assay [4], above 100 µM; in assay [5] it was above 100 µM; in assay [6], 81.8 µM. The TGI in assay [7] is 50.6 µM; in assay [8], above 100 µM; in assay [9], above 100 µM.

As to `CCCCOP1(=O)C=C(C)C(=C(Cl)Cl)C(C)=C1` (stereo unspecified), the TGI is 22.4 µM in assay [1]; 45.3 µM in assay [2]; above 24.4 µM in [3]; 23.6 µM in [4]; 32.7 µM in assay [5]; 34.7 µM in assay [6]. For the same compound, the TGI in assay [7] was above 54.2 µM; in [8], above 100 µM; in assay [9] it was 44.1 µM.

For the compound `c1ccc2c(c1)nc(NC1CCCC1)c1[nH]c(C3CCCC3)nc12`, the TGI in assay [1] was 13.3 µM; in [2], 63 µM; in assay [3], above 67.9 µM; in assay [4] it was above 75.6 µM; in assay [5], 35.9 µM; in assay [6], 32.7 µM. Moreover, the TGI in assay [7] is 24.3 µM; in [8], 41.4 µM; in assay [9], above 93.3 µM.

For `CSC1=C(C#N)C(=O)N(c2ccc(C)cc2)C(=S)C1C#N` (stereo unspecified), the TGI in assay [1], in assay [10], in assay [4], in assay [5], in [7] and in assay [8] was above 100 µM in each case. The TGI in assay [9] was above 100 µM.

On to `O=[Se](=O)c1ccccc1.O=[Se](=O)c1ccccc1.[Cu]`, for which the GI50 in assay [1] is 17.1 µM; in assay [2], 18 µM; in assay [3], 17 µM; in assay [5], 26 µM; in assay [6], 13.5 µM; in assay [7], 15.9 µM. In addition, in [8], the GI50 is 13.4 µM. Also, the TGI in [1] was determined as 30.9 µM; in assay [2], 32.5 µM; in assay [3], 63.1 µM; in [5], 43.4 µM; in [6], 30.1 µM; in assay [7], 30.2 µM. This compound registered a TGI in assay [8] of 47.4 µM.

With `COc1ccc2c(c1)n([O-])c(C#N)c(N1CCN(c3ccc([N+](=O)[O-])cc3)CC1)[n+]2=O`, the TGI is above 100 µM in assay [1]; 97.3 µM in [10]; above 100 µM in [4]; above 71.4 µM in assay [5]; above 100 µM in [6]; above 100 µM in assay [7]. The TGI in assay [8] and in assay [9] was above 100 µM throughout.

As to `C=C(CC[C@@H](C(=O)O)[C@H]1[C@H](O)C[C@@]2(C)C3=CC[C@@H](C(=C)C)[C@](C)(CCC(=O)O)C3=CC[C@]12C)C(C)C`, the TGI in assay [1] came to 32.8 µM; in assay [2], 31.5 µM; in assay [10], 33.5 µM; in assay [4], 31.4 µM; in assay [6], 31.6 µM; in assay [7] it was 39.9 µM. For the same compound, the figures for the TGI in [8] and in assay [9] were above 100 µM and 32.3 µM, respectively.
